Experimental findings from patent publication US20230265151A1, “GIP/GLP1 CO-AGONIST COMPOUNDS” (priority 2020, published 2023) are described below.

Format in all cases: cell-based
The target in one assay is T1, hGIPR (Homo sapiens, UniProt P48546).
T1 construct: expressed in transfected cells
T1 sequence (P48546 22-466): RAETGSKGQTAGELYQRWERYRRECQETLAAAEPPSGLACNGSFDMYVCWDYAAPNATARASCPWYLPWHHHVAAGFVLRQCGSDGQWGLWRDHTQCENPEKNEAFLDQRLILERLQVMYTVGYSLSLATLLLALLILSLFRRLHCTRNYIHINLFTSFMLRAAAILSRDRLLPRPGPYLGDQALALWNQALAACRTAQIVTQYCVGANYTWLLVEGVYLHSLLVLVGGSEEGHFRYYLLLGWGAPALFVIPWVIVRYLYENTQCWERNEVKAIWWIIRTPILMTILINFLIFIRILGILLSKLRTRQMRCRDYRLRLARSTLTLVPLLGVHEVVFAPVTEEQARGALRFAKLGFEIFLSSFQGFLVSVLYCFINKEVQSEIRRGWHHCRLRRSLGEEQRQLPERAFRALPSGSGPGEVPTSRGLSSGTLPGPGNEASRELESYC
In words: Functional cAMP formation (HTRF) in HEK-293 clonal cells expressing hGIPR, 0.1% bovine casein, without or with 1.0% human serum albumin. Conditions: for EC50: geometric mean; for Emax: percent of maximal response to GIP(1-42)NH2. In a few lines:
(§1)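 Cells were stimulated with peptide for 30 min at 37° C, then intracellular cAMP was measured by competitive HTRF (665/620 nm ratio) and converted to nM using a cAMP standard curve. Relative EC50 and Emax came from four-parameter logistic fits of percent maximal response against peptide concentration.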

A further assay addresses T2, hGCGR (Homo sapiens, UniProt P47871).
T2 construct: expressed in transfected cells
In words: Functional cAMP formation (HTRF) in HEK-293 clonal cells expressing hGCGR, 0.1% bovine casein, without or with 1.0% human serum albumin. In a few lines:
as §1
A general note: Changes in cAMP serve as a functional read-out for many G protein-coupled receptors.

The next assay deals with hGLP-1R (Homo sapiens, UniProt P43220). In words: Functional cAMP formation (HTRF) in HEK-293 clonal cells expressing hGLP-1R, 0.1% bovine casein, without or with 1.0% human serum albumin. Particulars: for EC50: geometric mean. Details: expressed in transfected cells. In a few lines:
as §1

The mark [1] stands for this setting: HEK293, 0.1% bovine casein and 1.0% human serum albumin, 37° C., read-out: hGIPR Emax, % ± SEM.
Setting [2] is: 0.1% bovine casein and 1.0% human serum albumin, 37° C., geometric mean, read-out: hGCGR EC50, nM (SEM, n).
Setting [3] is: HEK293, read-out: hGIPR Emax, % ± SEM, cAMP, 37° C., 0.1% bovine casein and 1.0% human serum albumin.
The mark [4] stands for this setting: hGIPR EC50, nM (SEM, n), cAMP, 37° C., 0.1% bovine casein (no human serum albumin).
The mark [5] stands for this setting: hGCGR EC50, nM (SEM, n), cAMP, 37° C., 0.1% bovine casein (no human serum albumin), geometric mean.
Setting [6] is: hGCGR EC50, nM (SEM, n), cAMP, 37° C., 0.1% bovine casein and 1.0% human serum albumin, geometric mean (SEM, n).
Where [7] appears, read: HEK293, read-out: hGLP-1R Emax, % ± SEM, cAMP, 37° C., 0.1% bovine casein, percent of maximal response to GLP-1(7-36)NH2, arithmetic mean.
Setting [8] is: hGLP-1R EC50, nM (SEM, n), cAMP, 37° C., 0.1% bovine casein (no human serum albumin).

Where two headings read alike, the source gives them in different places.

hGLP-1R, sequence (P43220 24-463): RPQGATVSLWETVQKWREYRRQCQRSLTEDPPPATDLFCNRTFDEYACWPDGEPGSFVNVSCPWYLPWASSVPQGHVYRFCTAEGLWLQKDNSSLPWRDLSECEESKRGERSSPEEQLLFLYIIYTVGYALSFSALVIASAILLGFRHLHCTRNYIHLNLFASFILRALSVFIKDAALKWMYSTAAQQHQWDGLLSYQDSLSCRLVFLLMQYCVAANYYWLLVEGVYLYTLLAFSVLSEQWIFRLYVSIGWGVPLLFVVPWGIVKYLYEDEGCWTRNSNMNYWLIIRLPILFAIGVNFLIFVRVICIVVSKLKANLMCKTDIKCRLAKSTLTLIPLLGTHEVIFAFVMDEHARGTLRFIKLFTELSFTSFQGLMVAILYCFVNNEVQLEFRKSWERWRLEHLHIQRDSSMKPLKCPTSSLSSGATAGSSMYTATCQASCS
T2 sequence (P47871 26-477): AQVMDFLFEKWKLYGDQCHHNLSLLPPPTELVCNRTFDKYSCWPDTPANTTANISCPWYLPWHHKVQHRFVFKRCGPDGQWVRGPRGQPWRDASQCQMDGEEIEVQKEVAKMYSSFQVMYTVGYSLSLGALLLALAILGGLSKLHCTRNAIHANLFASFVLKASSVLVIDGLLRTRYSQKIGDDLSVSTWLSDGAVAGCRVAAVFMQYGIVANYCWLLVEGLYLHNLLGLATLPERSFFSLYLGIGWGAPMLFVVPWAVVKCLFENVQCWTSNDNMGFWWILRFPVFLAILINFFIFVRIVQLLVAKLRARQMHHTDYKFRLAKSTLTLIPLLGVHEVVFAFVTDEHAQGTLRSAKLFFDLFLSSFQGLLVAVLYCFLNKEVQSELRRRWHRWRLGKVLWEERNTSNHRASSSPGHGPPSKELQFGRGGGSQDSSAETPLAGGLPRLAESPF

Consider `CC[C@H](C)[C@H](NC(=O)[C@H](CC(C)C)NC(=O)[C@H](CCCCNC(=O)COCCOCCNC(=O)COCCOCCNC(=O)CC[C@H](NC(=O)CCCc1ccc(C(C)(C)C)cc1)C(=O)O)NC(=O)[C@H](CCC(=O)O)NC(=O)[C@@H](NC(=O)[C@H](Cc1ccccc1)NC(=O)[C@H](CCC(=O)O)NC(=O)C(C)(C)NC(=O)[C@H](CCC(N)=O)NC(=O)[C@H](C)NC(=O)[C@H](CCCCNC(=O)COCCOCCNC(=O)COCCOCCNC(=O)CC[C@H](NC(=O)CCCc1ccc(C(C)(C)C)cc1)C(=O)O)NC(=O)[C@H](CCCN)NC(=O)[C@H](CC(=O)O)NC(=O)[C@H](CC(C)C)NC(=O)[C@](C)(CC(C)C)NC(=O)[C@@H](NC(=O)[C@H](CO)NC(=O)[C@H](Cc1ccncc1)NC(=O)[C@H](CC(=O)O)NC(=O)[C@H](CO)NC(=O)[C@@H](NC(=O)[C@](C)(Cc1ccccc1F)NC(=O)[C@@H](NC(=O)CNC(=O)[C@H](CCC(=O)O)NC(=O)C(C)(C)NC(=O)[C@@H](N)Cc1ccc(O)cc1)[C@@H](C)O)[C@@H](C)O)[C@@H](C)CC)[C@@H](C)CC)C(=O)N[C@@H](CCC(=O)O)C(=O)NCC(=O)NCC(=O)N1CCC[C@H]1C(=O)N[C@@H](CO)C(=O)N[C@@H](CO)C(=O)NCC(=O)N[C@@H](C)C(=O)N1CCC[C@H]1C(=O)N1CCC[C@H]1C(=O)N1CCC[C@H]1C(=O)N[C@@H](CO)C(N)=O` [Example 68], for which the EC50 on hGIPR (0.1% bovine casein and 1.0% human serum albumin, 37° C., read-out: hGIPR EC50, nM (SEM, n)) was 0.0831 nM; on hGIPR (cAMP, incubated at 37° C., 0.1% bovine casein (no human serum albumin), read-out: hGIPR EC50, nM (SEM, n)) it was 0.0105 nM; at hGCGR (setting [2]), above 9950 nM; at hGCGR (cAMP, incubated at 37° C., 0.1% bovine casein (no human serum albumin), geometric mean, read-out: hGCGR EC50, nM (SEM, n)) it was above 9950 nM; at hGLP-1R (0.1% bovine casein and 1.0% human serum albumin, 37° C., read-out: hGLP-1R EC50, nM (SEM, n)) it was 5.79 nM. The Emax was 92.4% on hGIPR (setting [1]) and 95.9% on hGLP-1R (HEK293, percent of maximal response to GLP-1(7-36)NH2, 37° C., 0.1% bovine casein, arithmetic mean, read-out: hGLP-1R Emax, % ± SEM).

With `CC[C@H](C)[C@H](NC(=O)[C@H](CC(C)C)NC(=O)[C@](C)(Cc1ccc(O)cc1)NC(=O)[C@H](CCCCNC(=O)COCCOCCNC(=O)CCCCCCCNC(=O)CC[C@H](NC(=O)CCCCCCCCCOc1ccc(C(=O)O)cc1)C(=O)O)NC(=O)[C@@H](NC(=O)[C@H](Cc1ccccc1)NC(=O)[C@H](CCCN)NC(=O)C(C)(C)NC(=O)[C@H](CCC(N)=O)NC(=O)[C@H](C)NC(=O)[C@H](CCC(N)=O)NC(=O)[C@H](CCCN)NC(=O)[C@H](CC(=O)O)NC(=O)[C@H](CC(C)C)NC(=O)[C@](C)(CC(C)C)NC(=O)[C@@H](NC(=O)C(C)(C)NC(=O)[C@H](Cc1ccncc1)NC(=O)[C@H](CC(=O)O)NC(=O)[C@H](CO)NC(=O)[C@@H](NC(=O)[C@](C)(Cc1ccccc1F)NC(=O)[C@@H](NC(=O)CNC(=O)[C@H](CCC(=O)O)NC(=O)C(C)(C)NC(=O)[C@@H](N)Cc1ccc(O)cc1)[C@@H](C)O)[C@@H](C)O)[C@@H](C)CC)[C@@H](C)CC)C(=O)N[C@@H](CCCCNC(=O)COCCOCCNC(=O)CCCCCCCNC(=O)CC[C@H](NC(=O)CCCCCCCCCOc1ccc(C(=O)O)cc1)C(=O)O)C(=O)NCC(=O)NCC(=O)N1CCC[C@H]1C(=O)N[C@@H](CO)C(=O)N[C@@H](CO)C(=O)NCC(=O)N[C@@H](C)C(=O)N1CCC[C@H]1C(=O)N1CCC[C@H]1C(=O)N1CCC[C@H]1C(=O)N[C@@H](CO)C(N)=O` [Example 454], the Emax at hGIPR (setting [3]) worked out at 91.5%; on hGLP-1R (setting [7]) it was 114%. Further, the EC50 on hGIPR (setting [4]) is 0.0202 nM; on hGCGR (setting [5]) it was above 9950 nM; at hGCGR (setting [6]), above 9950 nM; on hGLP-1R (setting [8]), 0.266 nM.

Consider `CC[C@H](C)[C@H](NC(=O)[C@H](CCCN)NC(=O)[C@H](CC(=O)O)NC(=O)[C@H](CC(C)C)NC(=O)[C@](C)(CC(C)C)NC(=O)[C@@H](NC(=O)[C@H](CO)NC(=O)[C@H](Cc1ccc2ccccc2c1)NC(=O)[C@H](CC(=O)O)NC(=O)[C@H](CO)NC(=O)[C@@H](NC(=O)[C@](C)(Cc1ccccc1F)NC(=O)[C@@H](NC(=O)CNC(=O)[C@H](CCC(=O)O)NC(=O)C(C)(C)NC(=O)[C@@H](N)Cc1ccc(O)cc1)[C@@H](C)O)[C@@H](C)O)[C@@H](C)CC)C(=O)N[C@@H](C)C(=O)N[C@@H](CCC(N)=O)C(=O)NC(C)(C)C(=O)N[C@@H](CCC(=O)O)C(=O)N[C@@H](Cc1ccccc1)C(=O)N[C@H](C(=O)N[C@@H](CCCCNC(=O)COCCOCCNC(=O)COCCOCCNC(=O)CC[C@H](NC(=O)CCCCCCCCCCCCC(=O)O)C(=O)O)C(=O)N[C@@](C)(Cc1ccc(O)cc1)C(=O)N[C@@H](CC(C)C)C(=O)N[C@H](C(=O)N[C@@H](CCCCNC(=O)COCCOCCNC(=O)COCCOCCNC(=O)CC[C@H](NC(=O)CCCCCCCCCCCCC(=O)O)C(=O)O)C(=O)NCC(=O)NCC(=O)N1CCC[C@H]1C(=O)N[C@@H](CO)C(=O)N[C@@H](CO)C(=O)NCC(=O)N[C@@H](C)C(=O)N1CCC[C@H]1C(=O)N1CCC[C@H]1C(=O)N1CCC[C@H]1C(=O)N[C@@H](CO)C(N)=O)[C@@H](C)CC)[C@@H](C)CC` [Example 252], for which the maximal effect (Emax) stood at 87.2% at hGIPR (setting [1]); 109% at hGIPR (HEK293, cAMP, 37° C., 0.1% bovine casein, arithmetic mean, read-out: hGIPR Emax, % ± SEM); 115% at hGLP-1R (HEK293, 0.1% bovine casein and 1.0% human serum albumin, 37° C., percent of maximal response to GLP-1(7-36)NH2, read-out: hGLP-1R Emax, % ± SEM); 115% at hGLP-1R (HEK293, cAMP, 37° C., 0.1% bovine casein, percent of maximal response to GLP-1(7-36)NH2, arithmetic mean, read-out: hGLP-1R Emax, % ± SEM). The EC50 on hGCGR (setting [2]) was above 9950 nM; on hGCGR (cAMP, 37° C., 0.1% bovine casein (no human serum albumin), geometric mean, read-out: hGCGR EC50, nM (SEM, n)) it was above 9950 nM; at hGLP-1R (cAMP, 37° C., 0.1% bovine casein (no human serum albumin), read-out: hGLP-1R EC50, nM (SEM, n)), 0.555 nM.

As for `CC[C@H](C)[C@H](NC(=O)[C@H](CC(C)C)NC(=O)[C@](C)(Cc1ccc(O)cc1)NC(=O)[C@@H](CCC(=O)O)NC(=O)[C@@H](NC(=O)[C@H](Cc1ccccc1)NC(=O)[C@H](CCC(=O)O)NC(=O)C(C)(C)NC(=O)[C@H](CCC(N)=O)NC(=O)[C@H](C)NC(=O)[C@H](CCCCNC(=O)COCCOCCNC(=O)COCCOCCNC(=O)CCCCCCCCCOc1ccc(C(=O)O)cc1)NC(=O)[C@H](CCCN)NC(=O)[C@H](CC(=O)O)NC(=O)[C@H](CC(C)C)NC(=O)[C@](C)(CC(C)C)NC(=O)[C@@H](NC(=O)C(C)(C)NC(=O)[C@@H](NC(=O)[C@H](CC(=O)O)NC(=O)[C@H](CO)NC(=O)[C@@H](NC(=O)[C@](C)(Cc1ccccc1F)NC(=O)[C@@H](NC(=O)CNC(=O)[C@H](CCC(=O)O)NC(=O)C(C)(C)NC(=O)[C@@H](N)Cc1ccc(O)cc1)[C@@H](C)O)[C@@H](C)O)C(C)C)[C@@H](C)CC)[C@@H](C)CC)C(=O)N[C@@H](CCCCNC(=O)COCCOCCNC(=O)COCCOCCNC(=O)CCCCCCCCCOc1ccc(C(=O)O)cc1)C(=O)NCC(=O)NCC(=O)N1CCC[C@H]1C(=O)N[C@@H](CO)C(=O)N[C@@H](CO)C(=O)NCC(=O)N[C@@H](C)C(=O)N1CCC[C@H]1C(=O)N1CCC[C@H]1C(=O)N1CCC[C@H]1C(=O)N[C@@H](CO)C(N)=O` [Example 397], the Emax at hGIPR (setting [3]) was determined as 84.5%; at hGIPR (HEK293, read-out: hGIPR Emax, % ± SEM, cAMP, 37° C., 0.1% bovine casein, arithmetic mean) it was 94.6%; on hGLP-1R (setting [7]), 95.8%. Moreover, the EC50 is 0.0293 nM on hGIPR (setting [4]), above 9950 nM at hGCGR (setting [5]), above 9950 nM at hGCGR (setting [6]) and 0.166 nM on hGLP-1R (setting [8]).

As a reminder, the EC50 is the concentration needed to bring the measured effect to its halfway point. A word on the Emax: it is the size of the effect at its maximum, as opposed to the concentration needed.
